Measurements taken from the supplement of paper PMC11208160.

Assay: recombinant UMI read abundance after kanamycin selection (control-corrected) (log10(CPM+1)); higher = more efficient recombination; extreme values may be limits of the assay; sequences stand for … in AGTGCAGAGAAAATCGGCCAGTTTTCTCTGCCTGCAGTCCGCATGCCGTGGGACCCCTTGGGTTCTAACCTGTTGCCTAGATTTATGCAGCGGACTGCCTTTCTCCCAAAGTGATAAACCGG…AGGTTGGTTTCACT; site = the 11-nt donor
Procedure, shortened: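 In Escherichia coli, a pool of donor and donor-binding-loop pairs, each with a 12-nt UMI, was tested for the IS621 bridge recombinase. Plating was on IPTG (0.07 mM) plus kanamycin, or without selection, in two replicates. Recombinant UMIs were amplified by PCR across the donor–target junction and sequenced, and counts were reported as log10(CPM+1) after averaging and control-derived scaling.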
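Further: IS621 bridge recombinase in Escherichia coli cells against a fixed T5 target plasmid.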

| Sequence | recombinant UMI read abundance (log10) |
| --- | --- |
| CCCATGTCATGGACCGGTTTTCCCGGTAATCCGTATTTGTC (site CCCATCTCTGA) | 0 |
| CCCATGTCATGGACCGGTTTTCCCGGTAATCCGTATTTGTC (site CCCATGTCTGA) | 1.64 |
| CCCATGTCATGGACCGGTTTTCCCGGTAATCCGTATTTGTC (site CCCATTTCTGA) | 0 |
| CCCATTTCATGGACCGGTTTTCCCGGTAATCCGTATTTGTC (site CCCATATCTGA) | 0 |
| CCCATTTCATGGACCGGTTTTCCCGGTAATCCGTATTTGTC (site CCCATCTCTGA) | 0 |
| CCCATTTCATGGACCGGTTTTCCCGGTAATCCGTATTTGTC (site CCCATGTCTGA) | 0 |
| CCCATTTCATGGACCGGTTTTCCCGGTAATCCGTATTTGTC (site CCCATTTCTGA) | 0 |
| CCCCAATCATGGACCGGTTTTCCCGGTAATCCGTATTTGTG (site CCCCAATCTCA) | 0.678 |
| CCCCACACATGGACCGGTTTTCCCGGTAATCCGTATTTGAA (site CCCCACACTTA) | 0.0109 |
| CCCCACACATGGACCGGTTTTCCCGGTAATCCGTATTTGAA (site CCCCACACTTC) | 0.33 |
| CCCCACACATGGACCGGTTTTCCCGGTAATCCGTATTTGAA (site CCCCACACTTG) | 0 |
| CCCCACACATGGACCGGTTTTCCCGGTAATCCGTATTTGAA (site CCCCACACTTT) | 0.557 |
| CCCCACACATGGACCGGTTTTCCCGGTAATCCGTATTTGTA (site ACCCACACTTA) | 0.0144 |
| CCCCACACATGGACCGGTTTTCCCGGTAATCCGTATTTGTA (site CACCACACTTA) | 0.0132 |
| CCCCACACATGGACCGGTTTTCCCGGTAATCCGTATTTGTA (site CCACACACTTA) | 0.0146 |
| CCCCACACATGGACCGGTTTTCCCGGTAATCCGTATTTGTA (site CCCAACACTTA) | 0 |
| CCCCACACATGGACCGGTTTTCCCGGTAATCCGTATTTGTA (site CCCCAAACTTA) | 0 |
| CCCCACACATGGACCGGTTTTCCCGGTAATCCGTATTTGTA (site CCCCACACTAA) | 0.0177 |
| CCCCACACATGGACCGGTTTTCCCGGTAATCCGTATTTGTA (site CCCCACACTCA) | 0.0202 |

| Sequence | recombinant UMI read abundance (log10) |
| --- | --- |
| CCCCACACATGGACCGGTTTTCCCGGTAATCCGTATTTGTA (site CCCCACACTGA) | 0 |
| CCCCACACATGGACCGGTTTTCCCGGTAATCCGTATTTGTA (site CCCCACACTTA) | 1.14 |
| CCCCACACATGGACCGGTTTTCCCGGTAATCCGTATTTGTA (site CCCCACACTTC) | 0.0125 |
| CCCCACACATGGACCGGTTTTCCCGGTAATCCGTATTTGTA (site CCCCACACTTG) | 0.586 |
| CCCCACACATGGACCGGTTTTCCCGGTAATCCGTATTTGTA (site CCCCACACTTT) | 0.00983 |
| CCCCACACATGGACCGGTTTTCCCGGTAATCCGTATTTGTA (site CCCCACCCTTA) | 0.00838 |
| CCCCACACATGGACCGGTTTTCCCGGTAATCCGTATTTGTA (site CCCCACGCTTA) | 0.0198 |
| CCCCACACATGGACCGGTTTTCCCGGTAATCCGTATTTGTA (site CCCCACTCTTA) | 0.273 |
| CCCCACACATGGACCGGTTTTCCCGGTAATCCGTATTTGTA (site CCCCAGACTTA) | 0.0244 |
| CCCCACACATGGACCGGTTTTCCCGGTAATCCGTATTTGTA (site CCCCATACTTA) | 0.0127 |
| CCCCACACATGGACCGGTTTTCCCGGTAATCCGTATTTGTA (site CCCCCCACTTA) | 0.0246 |
| CCCCACACATGGACCGGTTTTCCCGGTAATCCGTATTTGTA (site CCCCGCACTTA) | 0.0118 |
| CCCCACACATGGACCGGTTTTCCCGGTAATCCGTATTTGTA (site CCCCTCACTTA) | 0.0137 |
| CCCCACACATGGACCGGTTTTCCCGGTAATCCGTATTTGTA (site CCCGACACTTA) | 0.0189 |
| CCCCACACATGGACCGGTTTTCCCGGTAATCCGTATTTGTA (site CCCTACACTTA) | 0.0176 |
| CCCCACACATGGACCGGTTTTCCCGGTAATCCGTATTTGTA (site CCGCACACTTA) | 0.021 |
| CCCCACACATGGACCGGTTTTCCCGGTAATCCGTATTTGTA (site CCTCACACTTA) | 0.0102 |
| CCCCACACATGGACCGGTTTTCCCGGTAATCCGTATTTGTA (site CGCCACACTTA) | 0.016 |
| CCCCACACATGGACCGGTTTTCCCGGTAATCCGTATTTGTA (site CTCCACACTTA) | 0.113 |
